Results on three molecules are retold here after patent US20260184807A1, “Methods for Treating Rheumatoid Arthritis Using a Syndecan-1 Inhibitor or Syntenin-1 Inhibitor” (The United States Government as represented by the …, priority 2022, published 2026).

Test [1] concerns RA FLS. The following applies: cited from earlier work.
The subject of test [2] is MΦs. The following applies: classical and Syntenin-1-differentiated MΦs; cited from earlier work.
For test [3], the system named is RA FLS. The following applies: IL-6/IFNγ signaling; cited from earlier work.
The subject of test [4] is RA MΦs. Description: Syntenin-1 stimulation and inhibition in RA MΦs (qRT-PCR, ELISA). It counts as cell-based, human. The following applies: Syntenin-1 1000 ng/mL, 6 h or 24 h vs PBS, FIGS. 2B-2E. The method, then: FIGS. 2A-K show ligation of Syntenin-1 to SDC-1 expands RA MΦ inflammatory profile independent of IL 5R or PDZ1 function. […] Transcription of IRFs (FIG. 2B) and the inflammatory monokines (FIG. 2C) was assessed by qRT-PCR (n=3-10), and protein levels of IL-6 (FIG. 2D) or TNFα (FIG. 2E) were determined in the conditioned media by ELISA (n=10). […] Data are presented as mean±SEM: significant differences were determined by the Mann-Whitney test, two-way-ANOVA, or one-way ANOVA. *p<0.05, **p<0.01, ***p<0.001, ****p<0.0001. ANOVA, analysis of variance.
(B, C) RA MΦs were treated with PBS (ctrl) or Syntenin-1 (1000 ng/mL) for 6 hours and transcription levels of HIF1α (n=10) (FIG. 3B). GLUT1, RAPTOR, HK2, PFK2, PDK1, PKM2 (FIG. 3C) were quantified by qRT-PCR (n=6). […] FIGS. 3H, 3I) after 24 hours impact of treatment was determined on CD14+CD86+ GLUT1+ frequency by flow cytometry (n=4-5). […] Data are presented as mean±SEM; significant differences were determined by Mann-Whitney test, Student's t-test, two-way-ANOVA, or one-way ANOVA. *p<0.05, **p<0.01, ***p<0.001, ****p<0.0001. ANOVA, analysis of variance.
Quantitative Real-Time PCR. […] Transcription to cDNA and subsequent quantitative real-time PCR analysis was performed using the High-Capacity cDNA Reverse Transcription Kit (Applied Biosystems) and TaqMan Gene Expression Master Mix (Applied Biosystems). […]
(Quantitative PCR measures a nucleic acid by following its amplification.)

Consider `O=CC[C@@H](O)[C@H](O)[C@H](O)CO` [2-DG, 2-deoxy-D-glucose], for which, in test [1] (LPS/IFNγ reprogrammed RA FLS), the “GLUT1 and HK2 transcriptional upregulation” value is reported as “suppressed”. Moreover, in test [1] (RA FLS differentiated by LPS/IFNγ), the “upregulation of IRF1/5/7 along with IL-6, IL-8, and CCL2” value is listed as “reversed”. Moreover, the citrate accumulation result in test [1] (RA FLS reconfigured by LPS/IFNγ) is “resolved”. Besides, the “metabolic activity expanded via GLUT1, LDHA, and lactate” value in test [2] is reported as “impaired”.

`C[C@@H]1CCN(C(=O)CC#N)C[C@@H]1N(C)c1ncnc2[nH]ccc12` [Tofacitinib]: the “RA FLS migration” value in test [3] was “impaired”.

B1: Syntenin-1: Syntenin-1 protein (1000 ng/ml, NKMAX Co.) used as stimulus (protein, UniProt O00560 2-298, looked up)
Syntenin-1: SLYPSLEDLKVDKVIQAQTAFSANPANPAILSEASAPIPHDGNLYPRLYPELSQYMGLSLNEEEIRANVAVVSGAPLQGQLVARPSSINYMVAPVTGNDVGIRRAEIKQGIREVILCKDQDGKIGLRLKSIDNGIFVQLVQANSPASLVGLRFGDQVLQINGENCAGWSSDKAHKVLKQAFGEKITMTIRDRPFERTITMHKDSTGHVGFIFKNGKITSIVKDSSAARNGLLTEHNICEINGQNVIGLKDSQIADILSTSGTVVTITIMPAFIFEHIIKRMAPSIMKSLMDHTIPEV
Take B1: the “expansion of monokines IL-1, TNF-α, IL-6, IL-8 and CCL2” value in test [4] is reported as more than 7 fold.
